Experimental data published in PubChem BioAssay AID248 (DTP/NCI, 2004).
Several values for one entry are separate records, joined by “and”; a condition that tells them apart may be missing. Equal entries are not always repeated. Toxic doses and inconclusive results are not listed. No stated cut-off is given here; in the data, active means T/C of 150% or more; inactive means T/C below 125%.

Tested on: L1210 leukemia ip in BDF1 mice, survival T/C
Test: NCI In Vivo Anticancer Drug Screen. Data for tumor model L1210 Leukemia (intraperitoneal) in B6D2F1 (BDF1) mice
Conditions: endpoint: mean survival time, higher = longer survival
In short: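 Each compound was tested against a transplantable tumor grown in mice. The endpoint was survival, with treated animals benchmarked against vehicle controls as a simple ratio.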

[1] = dose: 75.0 mg/kg/injection, schedule: Q01DX001 (ip), vehicle: acetone
[2] = dose: 150.0 mg/kg/injection, schedule: Q01DX001 (ip), vehicle: acetone
[3] = dose: 100.0 mg/kg/injection, schedule: Q01DX001 (ip), vehicle: saline
[4] = dose: 200.0 mg/kg/injection, schedule: Q01DX001 (ip), vehicle: saline
[5] = dose: 400.0 mg/kg/injection, schedule: Q01DX001 (ip), vehicle: saline
[6] = dose: 100.0 mg/kg/injection, schedule: Q04DX003 (ip), vehicle: Klucel (hydroxypropylcellulose) (HPC)
[7] = dose: 200.0 mg/kg/injection, schedule: Q04DX003 (ip), vehicle: Klucel (hydroxypropylcellulose) (HPC)
[8] = dose: 12.5 mg/kg/injection, schedule: Q01DX009 (ip), vehicle: saline
[9] = dose: 25.0 mg/kg/injection, schedule: Q01DX009 (ip), vehicle: saline
[10] = dose: 50.0 mg/kg/injection, schedule: Q01DX009 (ip), vehicle: Klucel (hydroxypropylcellulose) (HPC)
[11] = dose: 100.0 mg/kg/injection, schedule: Q01DX009 (ip), vehicle: Klucel (hydroxypropylcellulose) (HPC)
[12] = dose: 200.0 mg/kg/injection, schedule: Q01DX009 (ip), vehicle: Klucel (hydroxypropylcellulose) (HPC)
[13] = dose: 100.0 mg/kg/injection, schedule: Q04DX003 (ip), vehicle: saline
[14] = dose: 200.0 mg/kg/injection, schedule: Q04DX003 (ip), vehicle: saline
[15] = dose: 400.0 mg/kg/injection, schedule: Q04DX003 (ip), vehicle: saline
[16] = dose: 100.0 mg/kg/injection, schedule: Q01DX009 (ip), vehicle: saline
[17] = dose: 200.0 mg/kg/injection, schedule: Q01DX009 (ip), vehicle: saline
[18] = dose: 400.0 mg/kg/injection, schedule: Q01DX009 (ip), vehicle: saline
[19] = dose: 50.0 mg/kg/injection, schedule: Q01DX001 (ip), vehicle: saline
[20] = dose: 200.0 mg/kg/injection, schedule: Q01DX009 (ip), vehicle: saline with Tween-80
[21] = dose: 400.0 mg/kg/injection, schedule: Q01DX009 (ip), vehicle: Klucel (hydroxypropylcellulose) (HPC)
[22] = dose: 50.0 mg/kg/injection, schedule: Q01DX009 (ip), vehicle: saline with Tween-80
[23] = dose: 100.0 mg/kg/injection, schedule: Q01DX009 (ip), vehicle: saline with Tween-80

Measured: T/C

C#CC1(O)CCC2C3CCc4cc(O)ccc4C3CCC21C (centres undefined)
inactive: dose: 50.0 mg/kg/injection, schedule: Q01DX001 (sc), vehicle: steriod suspending solution 94 % of control | dose: 100.0 mg/kg/injection, schedule: Q01DX001 (sc), vehicle: steriod suspending solution 92 % of control | dose: 200.0 mg/kg/injection, schedule: Q01DX001 (sc), vehicle: steriod suspending solution 106 % of control | dose: 400.0 mg/kg/injection, schedule: Q01DX001 (sc), vehicle: steriod suspending solution 97 % of control

O=C(O)c1cccc(C(=O)O)n1
inactive: [1] 98 % of control | [2] 97 % of control

Cc1ccc(C(=O)CCN2CCOCC2)c(C)c1
inactive: [3] 102 % of control | [4] 96 % of control | [5] 96 % of control

CCCCNC(=S)NCCCN(C)C
inactive: [6] 101 % of control | [7] 98 % of control

CCOC(C)(NCc1ccccc1)OCC
inactive: dose: 25.0 mg/kg/injection, schedule: Q04DX002 (ip), vehicle: Klucel (hydroxypropylcellulose) (HPC) 86 % of control | dose: 50.0 mg/kg/injection, schedule: Q04DX002 (ip), vehicle: Klucel (hydroxypropylcellulose) (HPC) 111 % of control

c1ccc2c3csccc-3nc2c1
inactive: [8] 92 % of control | [9] 98 % of control | [10] 94 % of control | dose: 50.0 mg/kg/injection, schedule: Q01DX009 (ip), vehicle: saline 97 % of control | [11] 92 % of control | dose: 100.0 mg/kg/injection, schedule: Q04DX003 (ip), vehicle: acetone 94 % of control and 98 % of control | [12] 92 % of control | dose: 200.0 mg/kg/injection, schedule: Q04DX003 (ip), vehicle: acetone 97 % of control

O=S(=O)(O)c1ccc(N=Nc2c(O)cc(O)cc2O)cc1
inactive: [13] 94 % of control | [14] 97 % of control | [15] 93 % of control

CCN(CC)C(=O)Cn1ccc(NC(C)=O)nc1=O
inactive: [16] 104 % of control | [13] 106 % of control | [17] 98 % of control | [14] 113 % of control | [18] 98 % of control | [15] 111 % of control

CSc1ccc(NC(=O)Nc2ccccc2C(F)(F)F)cc1
inactive: dose: 100.0 mg/kg/injection, schedule: Q01DX009 (ip), vehicle: other 96 % of control | dose: 200.0 mg/kg/injection, schedule: Q01DX009 (ip), vehicle: other 96 % of control | dose: 400.0 mg/kg/injection, schedule: Q01DX009 (ip), vehicle: other 95 % of control

COS(=O)(=O)CCC[N+](C)(C)C
inactive: [19] 93 % of control

CCOc1ccccc1NC(=O)c1ccc(Cl)cc1Cl
inactive: [10] 92 % of control | [11] 92 % of control | [6] 89 % of control | [12] 86 % of control

O=C(NNCN1C(=O)c2ccccc2C1=O)c1ccccc1
inactive: [20] 90 % of control

Cc1ccc(C)c(C(O)C(=O)O)c1 (centres undefined)
inactive: [1] 101 % of control | [2] 98 % of control | dose: 300.0 mg/kg/injection, schedule: Q01DX001 (ip), vehicle: acetone 95 % of control

CC1=NCCC[N-]CC[N-]CCCN=C1C.[Ni+2].[O-][Cl+3]([O-])([O-])O
inactive: dose: 100.0 mg/kg/injection, schedule: Q04DX002 (ip), vehicle: saline 94 % of control | dose: 200.0 mg/kg/injection, schedule: Q04DX002 (ip), vehicle: saline 94 % of control | dose: 400.0 mg/kg/injection, schedule: Q04DX002 (ip), vehicle: saline 98 % of control

Cn1cnc([N+](=O)[O-])c1[Se]c1ncnc2c1c(C#N)cn2C1OC(CO)C(O)C1O (centres undefined)
inactive: dose: 6.25 mg/kg/injection, schedule: Q01DX009 (ip), vehicle: saline 111 % of control | dose: 12.5 mg/kg/injection, schedule: Q01DX005 (ip), vehicle: saline 95 % of control | [8] 113 % of control | dose: 15.0 mg/kg/injection, schedule: Q01DX009 (ip), vehicle: saline 103 % of control | dose: 25.0 mg/kg/injection, schedule: Q01DX005 (ip), vehicle: saline 111 % of control | [9] 108 % of control and 117 % of control | dose: 42.0 mg/kg/injection, schedule: Q01DX009 (ip), vehicle: saline 110 % of control

N#Cc1nc[nH]c1C(N)=O
inactive: [3] 94 % of control | [4] 94 % of control | [5] 96 % of control

NCCCCCc1ccccc1
inactive: dose: 50.0 mg/kg/injection, schedule: Q04DX003 (ip), vehicle: saline 109 % of control

CC(C)c1cccc(C(C)C)c1OCCOC(=O)Nc1ccc(F)cc1
inactive: [11] 101 % of control | [12] 117 % of control | [21] 109 % of control

CN(C)c1ccc(/C=N/NC(=O)c2ccc(Cl)cc2)cc1
inactive: [22] 100 % of control | [23] 89 % of control

ClCCOCCOc1ccc(C2CCCCC2)cc1
inactive: [16] 106 % of control | [17] 97 % of control | [18] 90 % of control

CC(O)CC(C)(C)c1ccccc1 (centres undefined)
inactive: [22] 93 % of control | [23] 93 % of control | [20] 89 % of control

CCCSCCN=C(N)C(N)=NCCSCCC
inactive: dose: 25.0 mg/kg/injection, schedule: Q04DX002 (ip), vehicle: saline with Tween-80 88 % of control | dose: 50.0 mg/kg/injection, schedule: Q04DX002 (ip), vehicle: saline with Tween-80 95 % of control | dose: 100.0 mg/kg/injection, schedule: Q04DX002 (ip), vehicle: saline with Tween-80 97 % of control and 101 % of control

COc1ncnc2c1ccn2C1OC(CO)C(O)C1O (centres undefined)
inactive: dose: 25.0 mg/kg/injection, schedule: Q01DX001 (ip), vehicle: saline 86 % of control | [19] 101 % of control | [3] 101 % of control

O=C1NC2(C=CC(Br)CC2)C(=O)C12CCCCC2 (centres undefined) (tested in a mixture with another compound)
inactive: dose: 150.0 mg/kg/injection, schedule: Q01DX001 (ip), vehicle: saline 94 % of control

CCOC(=O)CCC(NC(=O)c1cc(Cl)c(N(C)S(=O)(=O)c2ccc(C)cc2)cc1Cl)C(=O)OCC (centres undefined)
inactive: dose: 100.0 mg/kg/injection, schedule: Q01DX001 (ip), vehicle: Klucel (hydroxypropylcellulose) (HPC) 107 % of control | [23] 94 % of control | dose: 200.0 mg/kg/injection, schedule: Q01DX001 (ip), vehicle: Klucel (hydroxypropylcellulose) (HPC) 108 % of control | [20] 97 % of control | dose: 400.0 mg/kg/injection, schedule: Q01DX001 (ip), vehicle: Klucel (hydroxypropylcellulose) (HPC) 102 % of control | dose: 400.0 mg/kg/injection, schedule: Q01DX009 (ip), vehicle: saline with Tween-80 94 % of control

Cc1ccc(C)c(NC(=O)Nc2cccc(Cl)c2)c1
inactive: [11] 93 % of control | [6] 92 % of control | [12] 96 % of control | [7] 89 % of control | [21] 91 % of control | dose: 400.0 mg/kg/injection, schedule: Q04DX003 (ip), vehicle: Klucel (hydroxypropylcellulose) (HPC) 87 % of control

NC(=O)CCC(C(=O)O)N1C(=O)C2C3CCC(C3)C2C1=O (centres undefined)
inactive: [13] 98 % of control | [14] 95 % of control | [15] 95 % of control
